Reference: US20230146507A1, “N-PHENYL-3-MERCAPTOPROPANAMIDE DERIVATIVES AS METALLO-BETA-LACTAMASE INHIBITORS FOR THE TREATMENT OF BACTERIAL INFECTIONS” (Helmholtz-Zentrum Für Infektionsforschung GmbH, priority 2020, published 2023)
Values after ≈ are worked out from the molar mass of the structure shown.

How the values were obtained:
[1] = system: S. marcescens NDM-1 (T2352); assay: MIC assay, clinical isolate; assay type: cell-based
E. coli IMP-1 (T2360) = assay: Checkerboard assay with imipenem, E. coli IMP-1 (T2360); assay type: cell-based; settings: Escherichia coli, read-out: Imipenem MIC
Description: (§1) Fractional inhibitory concentration index (FICI). The checkerboard assay was performed to test for synergy in vitro. […] FICIs≤0.5 were defined as synergistic; FICIs from >0.5 to […] were defined as additive; FICIs from 1 to ≤4 were defined as indifferent and FICIs>4 were defined as antagonistic (Doern, C. D. When Does 2 plus 2 Equal 5? A Review of Antimicrobial Synergy Testing. J. Clin. Microbial. 2014, 52 (12), 4124-4128. https://doi.org/10.1128/JCM.01121-14).

E. coli VIM-1 (T2544) = assay: Checkerboard assay with imipenem, E. coli VIM-1 (T2544); assay type: cell-based
Description: as §1

E. coli NDM-1 (T2359) = assay: Checkerboard assay with imipenem, E. coli NDM-1 (T2359); assay type: cell-based
Description: as §1

E. cloacae GIM-1 (T2218) = assay: MIC assay, clinical isolate; assay type: cell-based
E. coli producing NDM-1 = assay: MIC of imipenem in the presence of HIPS1686; assay type: cell-based; settings: for MIC: Escherichia coli
E. coli NDM-7 (T2239) = assay: MIC assay, clinical isolate; assay type: cell-based; settings: Escherichia coli, read-out: MIC (mg/L) Imipenem
[2] = system: P. aeruginosa IMP-1 (T2325); assay: MIC assay, clinical isolate; assay type: cell-based
E. coli NDM-5 (T2351) = assay: MIC assay, clinical isolate; assay type: cell-based; settings: +HIPS1686 256 mg/L
E. cloacae NDM-1 (T2311) = assay: MIC assay, clinical isolate; assay type: cell-based; settings: +HIPS1686 256 mg/L
[3] = system: K. pneumoniae NDM-1 (T2301); assay: MIC assay, clinical isolate; assay type: cell-based; settings: +HIPS1686 256 mg/L
VIM-1 = biological target: T1, VIM-1 (Pseudomonas aeruginosa, UniProt A0A0F7KYQ8); assay: In vitro inhibition assay (kinetic fluorescence-based activity assay), VIM-1; assay type: biochemical; settings: Means and SD of at least two independent experiments
T1 construct: made in house
Description: (§2) Protein expression and purification. The expression of IMP-7, VIM-1, and NDM-1 was performed according to the protocol previously published by Klingler et al. (Klingler, F. M.; Wichelhaus, T. A.; Frank, D.; Cuesta-Bernal, J.; El-Delik, J.; Müller, H. F.; Sjuts, H.; Gottig, S.; Koenigs, A.; Pos, K. M.; et al. Approved Drugs Containing Thiols as Inhibitors of Metallo-β-Lactamases: Strategy to Combat Multidrug-Resistant Bacteria. J. Med. Chem. 2015, 58 (8), 3626-3630. https://doi.org/10.1021/jm501844d) with slight modifications.
(§3) In vitro inhibition assay. Activity assays for NDM-1, VIM-1, VIM-2 and IMP-7 were carried out, as described by Klingler et al. Final protein concentrations were 0.5 nM (NDM-1), 4.0 nM (VIM-1), and 0.1 nM (IMP-7) in a 50 mM HEPES buffer (pH 7.5, 0.01% Triton X-100) Substrate (Fluorocillin™ (Invitrogen, Darmstadt, Germany) was dissolved in assay buffer to a final concentration of 888 nM. Test compounds were dissolved and pre-diluted in DMSO (final concentration: 1%). In a black polystyrol 96-well plate (Corning) an amount of […] of the respective inhibitor solution at different concentrations was incubated with […] of respective protein containing buffer for 30 minutes at room temperature. […] of substrate solution was added. The readout of the emitted fluorescence was started immediately (45 s for 30 cycles) using a Tecan Infinite F200Pro (Tecan Group Ltd; excitation at 495 nm and emission at 525 nm). Blank controls were performed without enzyme. Positive controls were performed with enzyme but without inhibitor. The inhibitory activity of each test compound was measured in three independent experiments. For calculation of IC50 values, data obtained from measurements with eight different inhibitor concentrations were used. For the evaluation of the sigmoidal dose response equation (variable slope with four parameters) GraphPad Prism 5 (GraphPad Software, La Jolla, Calif., USA) was used.

E. cloacae VIM-1 (T2353) = assay: MIC assay, clinical isolate; assay type: cell-based; settings: +HIPS1686 256 mg/L
[4] = system: different isolates from E. coli and P. aeruginosa; assay: MIC assay, intrinsic antibacterial activity; assay type: cell-based; settings: compound alone
IMP-7 = IMP-7 (Pseudomonas aeruginosa, UniProt Q93AU3); assay: In vitro inhibition assay (kinetic fluorescence-based activity assay), IMP-7; assay type: biochemical; settings: Means and SD of at least two independent experiments
IMP-7, sequence (Q93AU3 entry or part of it): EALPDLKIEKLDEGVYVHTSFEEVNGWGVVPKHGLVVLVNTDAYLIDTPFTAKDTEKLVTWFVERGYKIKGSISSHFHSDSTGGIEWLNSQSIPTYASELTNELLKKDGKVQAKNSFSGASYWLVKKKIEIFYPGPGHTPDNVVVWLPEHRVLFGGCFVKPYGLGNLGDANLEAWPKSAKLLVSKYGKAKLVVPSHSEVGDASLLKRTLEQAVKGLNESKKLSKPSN
Description: as §2, §3

NDM-1 = biological target: T2, NDM-1 (Klebsiella pneumoniae, UniProt C7C422); assay: In vitro inhibition assay (kinetic fluorescence-based activity assay), NDM-1; assay type: biochemical; settings: Means and SD of at least two independent experiments
T2 construct: made in house
T2 sequence (C7C422 29-270, looked up, species assumed): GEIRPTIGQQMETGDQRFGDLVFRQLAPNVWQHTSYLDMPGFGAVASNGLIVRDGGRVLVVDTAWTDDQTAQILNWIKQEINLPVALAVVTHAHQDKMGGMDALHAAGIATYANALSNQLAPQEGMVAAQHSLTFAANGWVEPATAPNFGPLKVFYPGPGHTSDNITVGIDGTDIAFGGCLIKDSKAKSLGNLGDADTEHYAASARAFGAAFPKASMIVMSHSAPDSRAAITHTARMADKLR
Description: as §2, §3

## C[C@@H](O)[C@H]1C(=O)N2C(C(=O)O)=C(SCCN=CN)C[C@H]12 [Imipenem, reference compound]
[1]; Serratia marcescens, read-out: MIC (mg/L) Imipenem
  MIC: 256 mg/L (≈ 855 µM)
E. coli IMP-1 (T2360)
  MIC: 2 µg/mL
E. coli VIM-1 (T2544); Escherichia coli, read-out: Imipenem MIC, without compound
  MIC: 32 µg/mL
E. coli VIM-1 (T2544); without compound
  Imipenem MIC: 64 µg/mL
E. coli NDM-1 (T2359); Escherichia coli, read-out: Imipenem MIC
  MIC: 128 µg/mL
E. coli NDM-1 (T2359); Table 6, without compound
  Imipenem MIC: 128 µg/mL
E. cloacae GIM-1 (T2218); Enterobacter cloacae, read-out: MIC (mg/L) Imipenem
  MIC: 2 mg/L (≈ 6.68 µM)
E. coli producing NDM-1
  MIC: 128 µg/mL
E. coli NDM-7 (T2239)
  MIC: 32 mg/L (≈ 107 µM)
[2]; Pseudomonas aeruginosa, read-out: MIC (mg/L) Imipenem
  MIC: 64 mg/L (≈ 214 µM)

## O=C(CCS)Nc1ccccc1C(=O)O [HIPS1686]
[1]; +HIPS1686 256 mg/L, S. marcescens NDM-1 (T2352)
  MIC (mg/L) Imipenem (+HIPS1686 256 mg/L): 4 mg/L (≈ 17.8 µM)
E. coli NDM-5 (T2351)
  MIC (mg/L) Imipenem (+HIPS1686 256 mg/L): 2 mg/L (≈ 8.88 µM)
E. cloacae NDM-1 (T2311)
  MIC (mg/L) Imipenem (+HIPS1686 256 mg/L): 1 mg/L (≈ 4.44 µM)
[3]
  MIC (mg/L) Imipenem (+HIPS1686 256 mg/L): 1 mg/L (≈ 4.44 µM)
VIM-1
  IC50: 2.2 ± 0.2 µM
E. cloacae VIM-1 (T2353)
  MIC (mg/L) Imipenem (+HIPS1686 256 mg/L): 4 mg/L (≈ 17.8 µM)
[4]
  intrinsic antibacterial activity (MIC): no intrinsic antibacterial activity
E. coli NDM-1 (T2359); Table 4, +4 mg/L HIPS1686, median of three experiments
  Imipenem MIC: 64 µg/mL
E. coli NDM-1 (T2359); Table 4, +8 mg/L HIPS1686, median of three experiments
  Imipenem MIC: 64 µg/mL
E. coli NDM-1 (T2359); Table 4, +16 mg/L HIPS1686, median of three experiments
  Imipenem MIC: 64 µg/mL
E. coli NDM-1 (T2359); Table 4, +32 mg/L HIPS1686, median of three experiments
  Imipenem MIC: 16 µg/mL
E. coli NDM-1 (T2359); Table 4, +64 mg/L HIPS1686, median of three experiments
  Imipenem MIC: 8 µg/mL
E. coli NDM-1 (T2359); Table 4, +128 mg/L HIPS1686, median of three experiments
  Imipenem MIC: 2 µg/mL
E. coli NDM-1 (T2359); Table 4, +256 mg/L HIPS1686, median of three experiments
  Imipenem MIC: 2 µg/mL
IMP-7
  IC50: 4.1 ± 0.3 µM
NDM-1
  IC50: 3.4 ± 0.1 µM
E. cloacae GIM-1 (T2218); +HIPS1686 256 mg/L, E. cloacae GIM-1 (T2218)
  MIC (mg/L) Imipenem (+HIPS1686 256 mg/L): 0.5 mg/L (≈ 2.22 µM)
E. coli producing NDM-1
  MIC: > 1020 µg/mL
E. coli producing NDM-1; HIPS1686 constant 64 μg/ml
  MIC of imipenem in the presence of HIPS1686: 4 µg/mL
E. coli producing NDM-1; HIPS1686 constant 256 μg/ml
  MIC of imipenem in the presence of HIPS1686: 1 µg/mL
E. coli producing NDM-1; HIPS1686 constant 1024 μg/ml
  MIC of imipenem in the presence of HIPS1686: 1 µg/mL
[2]; +HIPS1686 256 mg/L, P. aeruginosa IMP-1 (T2325)
  MIC (mg/L) Imipenem (+HIPS1686 256 mg/L): 32 mg/L (≈ 142 µM)
